ChEMBL document CHEMBL5352486, “Design, synthesis, in vitro - In vivo biological evaluation of novel thiazolopyrimidine compounds as antileishmanial agent with PTR1 inhibition” (Eur J Med Chem, 2023)

Key:
Assay type in all cases: functional
Leishmania infantum [1] = experiment: Antileishmanial activity against Leishmania infantum infected in BALB/c mouse model of cutaneous leishmaniasis assessed as footpad lesion development at 50 mg/kg/day, ID administered for 21 days and measured after 20 weeks by Giemsa staining based analysis (reference value: 4.54 +/- 0.04); conditions: time 21 day
Leishmania infantum [2] = experiment: Antileishmanial activity against Leishmania infantum infected in BALB/c mouse model of visceral leishmaniasis assessed as footpad lesion development at 50 mg/kg/day, IM administered for 21 days and measured after 2 weeks by Giemsa staining based analysis (reference value: 29.73 +/- 0.63); conditions: time 21 day
Leishmania infantum [3] = experiment: Antileishmanial activity against Leishmania infantum infected in BALB/c mouse model of visceral leishmaniasis assessed as footpad lesion development at 50 mg/kg/day, IM administered for 21 days and measured after 4 weeks by Giemsa staining based analysis (reference value: 28.01 +/- 0.65); conditions: time 21 day
Leishmania infantum [4] = experiment: Antileishmanial activity against Leishmania infantum infected in BALB/c mouse model of cutaneous leishmaniasis assessed as footpad lesion development at 50 mg/kg/day, ID administered for 21 days and measured after 32 weeks by Giemsa staining based analysis (reference value: 4.91 +/- 0.01); conditions: time 21 day
Leishmania infantum [5] = experiment: Antileishmanial activity against Leishmania infantum infected in BALB/c mouse model of visceral leishmaniasis assessed as footpad lesion development at 50 mg/kg/day, IM administered for 21 days and measured after 11 weeks by Giemsa staining based analysis (reference value: 20.71 +/- 0.48); conditions: time 21 day
Leishmania infantum [6] = experiment: Antileishmanial activity against Leishmania infantum infected in BALB/c mouse model of visceral leishmaniasis assessed as footpad lesion development at 50 mg/kg/day, IM administered for 21 days and measured after 1 week by Giemsa staining based analysis (reference value: 30.43 +/- 0.60); conditions: time 21 day
Leishmania infantum [7] = experiment: Antileishmanial activity against Leishmania infantum infected in BALB/c mouse model of cutaneous leishmaniasis assessed as footpad lesion development at 50 mg/kg/day, ID administered for 21 days and measured after 30 weeks by Giemsa staining based analysis (reference value: 4.92 +/- 0.01); conditions: time 21 day
Leishmania infantum [8] = experiment: Antileishmanial activity against Leishmania infantum infected in BALB/c mouse model of visceral leishmaniasis assessed as footpad lesion development at 50 mg/kg/day, IM administered for 21 days and measured after 7 weeks by Giemsa staining based analysis (reference value: 24.85 +/- 0.88); conditions: time 21 day
Leishmania infantum [9] = experiment: Antileishmanial activity against Leishmania infantum infected in BALB/c mouse model of cutaneous leishmaniasis assessed as footpad lesion development at 50 mg/kg/day, ID administered for 21 days and measured after 26 weeks by Giemsa staining based analysis (reference value: 4.91 +/- 0.01); conditions: time 21 day
Leishmania infantum [10] = experiment: Antileishmanial activity against Leishmania infantum infected in BALB/c mouse model of cutaneous leishmaniasis assessed as footpad lesion development at 50 mg/kg/day, ID administered for 21 days and measured after 16 weeks by Giemsa staining based analysis (reference value: 4.20 +/- 0.03); conditions: time 21 day
Leishmania infantum [11] = experiment: Antileishmanial activity against Leishmania infantum infected in BALB/c mouse model of visceral leishmaniasis assessed as footpad lesion development at 50 mg/kg/day, IM administered for 21 days and measured after 6 weeks by Giemsa staining based analysis (reference value: 25.81 +/- 0.84); conditions: time 21 day
Leishmania infantum [12] = experiment: Antileishmanial activity against Leishmania infantum infected in BALB/c mouse model of cutaneous leishmaniasis assessed as footpad lesion development at 50 mg/kg/day, ID administered for 21 days and measured after 18 weeks by Giemsa staining based analysis (reference value: 4.42 +/- 0.03); conditions: time 21 day
Leishmania infantum [13] = experiment: Antileishmanial activity against Leishmania infantum infected in BALB/c mouse model of cutaneous leishmaniasis assessed as footpad lesion development at 50 mg/kg/day, ID administered for 21 days and measured after 22 weeks by Giemsa staining based analysis (reference value: 4.71 +/- 0.04); conditions: time 21 day
Leishmania tropica = experiment: Potency index, ratio of glucantime IC50 to test compound IC50 for antileishmanial activity against Leishmania tropica MHOM/A7/1974/SAF-K27

`CN1CCN(c2ncc3nc(NC(=O)c4ccc(Cl)c(Cl)c4)sc3n2)CC1` showed an Activity (Leishmania infantum [1]) of 4.53, an Activity (Leishmania infantum [2]) of 29.53 and an Activity (Leishmania infantum [3]) of 27.9. The Activity (Leishmania infantum [4]) was 4.73, the Activity (Leishmania infantum [5]) was 20.13 and the Activity (Leishmania infantum [6]) was 30.3. The Activity (Leishmania infantum [7]) was 4.78, the Activity (Leishmania infantum [8]) was 24.43 and the Activity (Leishmania infantum [9]) was 4.87. The Activity (Leishmania infantum [10]) was 4.21, the Activity (Leishmania infantum [11]) was 25.72 and the Activity (Leishmania infantum [12]) was 4.4. The Activity (Leishmania infantum [13]) was 4.69.
`CCOC(=O)N1CCN(c2ncc3nc(NC(=O)c4ccc(Cl)c(Cl)c4)sc3n2)CC1` showed an Activity (Leishmania infantum [1]) of 4.52, an Activity (Leishmania infantum [2]) of 29.54 and an Activity (Leishmania infantum [3]) of 27.85. The Activity (Leishmania infantum [4]) was 2.42, the “Ratio IC50” value (Leishmania tropica) was 200 and the Activity (Leishmania infantum [5]) was 28.55. For the same molecule, the Activity (Leishmania infantum [6]) was 30.63, the Activity (Leishmania infantum [7]) was 2.89 and the Activity (Leishmania infantum [8]) was 26.22. The Activity (Leishmania infantum [9]) was 4.73, the Activity (Leishmania infantum [10]) was 4.2 and the Activity (Leishmania infantum [11]) was 25.71. For the same molecule, the Activity (Leishmania infantum [12]) was 4.4 and the Activity (Leishmania infantum [13]) was 4.69.
Molecule `CN(C)c1ncc2nc(NC(=O)c3ccc(Cl)c([N+](=O)[O-])c3)sc2n1` has an Activity (Leishmania infantum [1]) of 4.53, an Activity (Leishmania infantum [2]) of 29.49 and an Activity (Leishmania infantum [3]) of 27.83. The Activity (Leishmania infantum [4]) was 2.08, the Activity (Leishmania infantum [5]) was 29.85 and the Activity (Leishmania infantum [6]) was 30.38. For the same molecule, the Activity (Leishmania infantum [7]) was 2.58, the Activity (Leishmania infantum [8]) was 26.77 and the Activity (Leishmania infantum [9]) was 4.7. For the same molecule, the Activity (Leishmania infantum [10]) was 3.83, the Activity (Leishmania infantum [11]) was 26.28 and the Activity (Leishmania infantum [12]) was 4.41. The Activity (Leishmania infantum [13]) was 4.67.
